{"source": "patent US9314485B2", "about": "“Use of PI3K M-TOR and AKT inhibitors to induce FOXP3 expression and generate regulatory T cells” (Medical Research Council, priority 2006, dated 2016)", "key": {"S6 ribosomal protein": {"test_system": "S6 ribosomal protein", "test": "S6 ribosomal protein phosphorylation (pS6) by intracellular staining/immunoblot", "type": "cell-based, mouse", "conditions": "18 h activated cells; rapamycin 25 nM, Ly294002 10 g/ml as printed; within one hour", "description": "Mouse strains, cell sorting and culture Animal work was carried out according the Animals (Scientific Procedures) Act, UK. Lymph node (LN) cells were stained, analysed and sorted by flow cytometry as described (Cobb et al 2005 J. Exp. Med. 201: 1367-1373). Intracellular staining for Foxp3 protein was done as advised by the manufacturers (eBiosciences.com). The phosphorylation syatus of S6 ribosomal protein was determined using anti pS6 Ser235/236 (Cellsignaling cat.no. 2211, http://www.cellsignal.com) using the eBioscience Foxp3 staining kit and anti rabbit IgG-FITC or IgG-Cy5 (Jackson Immunoresearch). […] CD4 T cell CFSE profiles were recorded between 48 and 72 hours later.\nTo monitor the activity of the PI3K/mTOR axis in response to TCR signaling, TCR signal withdrawal and treatment with rapamycin and Ly294002, we analysed the level of phosphorylated S6 ribosomal protein (pS6), the target of p70 S6 kinase, which is directly regulated by mTOR. […]\nMice, Cell Sorting and Culture. […] Lymph node (LN) cells or thymocytes from wild type were stained, analysed and sorted by flow cytometry as described (Thompson et al., 2007 Immunity VoI 26 pp 335-344) from wild type (C57BL/6, BALB/c or C57BL/6×129) mice or from Rag1 deficient H2^b AND TCR transgenic mice. […] CD4 T cell CFSE profiles were recorded between 48 and 72 hours later."}, "[1]": {"test_system": "naive CD62LhiCD4+CD25− LN T cells", "test": "Foxp3 induction in newly activated naive CD4 T cells (intracellular staining)", "type": "cell-based, mouse", "conditions": "for number of cell divisions (CFSE): 24-48 hours after addition at 18 hours; for % Foxp3+ cells, activation with anti-TCR only: no costimulation; for % Foxp3+ cells, activation with anti-TCR only / % Foxp3+ cells, activation with anti-TCR + anti-CD28: average of two experiments; for % Foxp3+ cells, activation with anti-TCR + anti-CD28: with costimulation", "description": "Mouse strains, cell sorting and culture Animal work was carried out according the Animals (Scientific Procedures) Act, UK. Lymph node (LN) cells were stained, analysed and sorted by flow cytometry as described (Cobb et al 2005 J. Exp. Med. 201: 1367-1373). Intracellular staining for Foxp3 protein was done as advised by the manufacturers (eBiosciences.com). The phosphorylation syatus of S6 ribosomal protein was determined using anti pS6 Ser235/236 (Cellsignaling cat.no. 2211, http://www.cellsignal.com) using the eBioscience Foxp3 staining kit and anti rabbit IgG-FITC or IgG-Cy5 (Jackson Immunoresearch). For induction of Foxp3 expression, sorted LN CD4+ CD25− CD62Lhi T cells were cultured at 1-3×10^6/ml with plate bound anti-TCRβ. […] After 18 hours the cells were either left in place for continued TCR stimulation or moved to uncoated wells with the indicated additives. To assess regulatory function, CD4 T cells cultured as indicated were titrated into round bottom wells containing either 1×10^5 CFSE labeled total LN cells or 5×10^4 CFSE labeled CD4^+ CD25^− T cells and 1×10^5 mitomycin-C treated (25 μg/ml, 20 min, 37° C.) T cell depleted splenocytes with the indicated concentrations of anti CD3 (2C11, Pharmingen). CD4 T cell CFSE profiles were recorded between 48 and 72 hours later.\nMice, Cell Sorting and Culture. Animal work was carried out according to the Animals (Scientific Procedures) Act, UK. Lymph node (LN) cells or thymocytes from wild type were stained, analysed and sorted by flow cytometry as described (Thompson et al., 2007 Immunity VoI 26 pp 335-344) from wild type (C57BL/6, BALB/c or C57BL/6×129) mice or from Rag1 deficient H2^b AND TCR transgenic mice. Antigen presenting cells were derived from bone marrow in the presence of GM-CSF and incubated with antigenic peptide. Intracellular staining for Foxp3 protein was done as advised by the manufacturers (eBiosciences.com). The phosphorylation status of S6 ribosomal protein was determined using anti pS6 Ser235/236 (Cell Signaling cat.no. 2211, http://www.cellsignal.com) using the eBioscience Foxp3 staining kit and anti rabbit IgG-FITC or IgG-Cy5 (Jackson ImmunoResearch). […] After 18 hours the cells were either left in place for continued TCR stimulation or moved to uncoated wells with the indicated additives. To assess regulatory function, CD4 T cells cultured as indicated were titrated into round bottom wells containing either 1×10^5 CFSE labeled total LN cells or 5×10^4 CFSE labeled CD4^+CD25^− T cells and 1×10^5 mitomycin-C treated (25 μg/ml, 20 min, 37° C.) T cell depleted splenocytes with the indicated concentrations of anti CD3 (2C11, Pharmingen). CD4 T cell CFSE profiles were recorded between 48 and 72 hours later."}}}
{"compound": "O=c1cc(N2CCOCC2)oc2c(-c3ccccc3)cccc12", "note": "[Ly294002, 2-(4-Morpholinyl)-8-phenyl-4H-1-benzopyran-4-one]", "values": [{"measurement": "S6 phosphorylation (pS6)", "setting": "S6 ribosomal protein", "result": "completely removed"}, {"measurement": "number of cell divisions (CFSE)", "setting": "[1]", "result": "slight reduction"}, {"measurement": "number of cell divisions (CFSE)", "setting": "[1]; listed as LY294002", "result": "slightly reduced"}, {"measurement": "percentage of cells expressing Foxp3", "setting": "[1]; added 18 hours after activation with TCR signal deprivation, read within 24-48 hours", "result": "26.9±11.4", "unit": "%"}, {"measurement": "% Foxp3+ cells, activation with anti-TCR only", "setting": "[1]", "result": 4, "unit": "%"}, {"measurement": "% Foxp3+ cells, activation with anti-TCR only", "setting": "[1]; listed as LY294002", "result": 4, "unit": "% Foxp3^+"}, {"measurement": "Foxp3 expression in control cultures, TCR signal deprived cultures subtracted", "setting": "[1]; serum free AIM-V medium, without anti TGFβ and SB431542, 24-48 hours / 2 days", "result": "21.5±4.0", "unit": "%"}, {"measurement": "% Foxp3+ cells, activation with anti-TCR + anti-CD28", "setting": "[1]", "result": 44, "unit": "%"}, {"measurement": "% Foxp3+ cells, activation with anti-TCR + anti-CD28", "setting": "[1]; listed as LY294002", "result": 44, "unit": "% Foxp3^+"}]}
